In data set [1] the test system is southern armyworm (Spodopera eridania, (Cram.)). As to the kind of experiment: whole plant or invertebrate. The conditions noted are these: Spodoptera eridania, read-out: Biological Activity in LD50's: Southern Armyworm. The method, then: (§1) The thus-prepared stock suspension contained 0.5 percent by weight of compound. The test concentrations in parts per million by weight employed in the tests described hereinbelow were obtained by appropriate dilutions of the stock suspension with water. The test procedures were as follows:
Larvae of the southern armyworm (Spodopera eridania, (Cram.)), reared on Tendergreen bean plants at a temperature of 80±5° F. and a relative humidity of 50±5 percent, constituted the test insects.
Potted Tendergreen bean plants of standard height and age were placed on a revolving turntable and sprayed with 100-110 milliliters of test compound formulation by use of a DeVilbiss spray gun set at 10 psig air pressure. This application, which lasted 25 seconds, was sufficient to wet plants to run-off. As a control, 100-110 milliliters of a water-acetone-emulsifier solution containing no test compound were also sprayed on infested plants. When dry, the paired leaves were separated and each one was placed in a 9 centimeter Petri dish lined with moistened filter paper. Five randomly selected larvae were introduced into each dish and the dishes were closed. The closed dishes were labeled and held at 80°-85° F. for three days. Although the larvae could easily consume the whole leaf within twenty-four hours, no more food was added. Larvae which were unable to move the length of the body, even upon stimulation by prodding, were considered dead. Percent mortality was recorded for various concentration levels.
(§2) In these tests the pesticidal activity of the compounds at the indicated dosage rate against aphid, mite, Southern Armyworm (SA), Mexican Bean Beetle (MBB), and house fly was rated as follows:
(§3) Several of the unsymmetrical bis-carbamoyl sulfide compounds of this invention were tested against related known compounds.

The test system of data set [2] is bean aphid (Aphis fabae Scop.). As to the kind of experiment: whole plant or invertebrate. Particulars: foliar, read-out: Biological Activity in LD50's: Aphid. How it is done:
as §1
Adults and nymphal stages of the bean aphid (Aphis fabae Scop.) reared on potted dwarf nasturtium plants at 65°-70° F. and 50-70 percent relative humidity, consistuted with test insects. For testing purposes, the number of aphids per pot was standardized to 100-150 by trimming plants containing excess aphids.
The potted plants (one pot per compound tested) infested with 100-150 aphids, were placed on a revolving turntable and sprayed with 100-110 milliliters of test compound formulation by use of a DeVilbiss spray gun set at 40 psig. air pressure. This application, which lasted 25 seconds, was sufficient to wet the plants to run-off. As a control, 100-110 milliliters of a water-acetone-emulsifier solution containing no test compound were also sprayed on infested plants. […] Temperature and humidity in the test room during the 24 hour holding period were 65°-70° F. and 50-70 percent, respectively. Aphids which fell onto the paper and were unable to remain standing after being uprighted were considered dead. Aphids remaining on the plants were observed closely for movement and those which were unable to move the length of the body upon stimulation by prodding were considered dead. Percent mortality was recorded for various concentration levels.
as §2, §3

Data set [3] has as its system house flies (Musca domestica, L.). As to the kind of experiment: whole plant or invertebrate. Particulars: read-out: Biological Activity in LD50's: Housefly.
From the text: as §1
The flies were immobilized individuals, males and females, were transferred to a cage consisting of a standard food strainer about five inches in diameter which was inverted over a wrapping-paper-covered surface. […] Ten milliliters of the test formulation were added to a souffle cup containing a one-inch square of an absorbent cotton pad. This bait cup was introduced and centered on the blotting paper under the food strainer prior to admitting the anesthetized flies. The caged flies were allowed to feed on the bait for twenty-four hours, at a temperature of 80±5° F. and the relative humidity of 50±5 percent.
as §2, §3

Data set [4] deals with Mexican bean beetle (Epilachna varivestis, Muls.). Briefly: whole plant or invertebrate. Particulars: read-out: Biological Activity in LD50's: MBB. How it is done:
as §1
Fourth instar larvae of the Mexican bean beetle (Epilachna varivestis, Muls.), reared on Tendergreen bean plants at a temperature of 80±5° F. and 50±5 percent relative humidity, were the test insects.
Potted Tendergreen bean plants of standard height and age were placed on a revolving turntable and sprayed with 100-110 milliliters of test compound formulation by use of a DeVilbiss strapy gun set at 10 psig air pressure. This application, which lasted 25 seconds, was sufficient to wet plants to run-off. As a control, 100-110 milliliters of a water-acetone-emulsifier solution containing no test compound were also strayed on infested plants. When dry, the paired leaves were separated and each was placed in a 9 centimeter Petri dish lined with moistened filter paper. Five randomly selected larvae were introduced into each dish, and the dishes were closed. The closed dishes were labeled and held at a temperature of 80±5° F. for three days. Although the larvae could easily consume the leaf within 24 to 48 hours, no more food was added. Larvae which were unable to move the length of the body, even upon stimulation, were considered dead.
as §2, §3

Data set [5] deals with two-spotted mite (Tetranychus urticae Koch). As to the kind of experiment: whole plant or invertebrate. The conditions noted are these: foliar, read-out: Biological Activity in LD50's: Mite. How it is done:
as §1
Adults and nymphal stage of the two-spotted mite (Tetranychus urticae Koch), reared on Tendergreen bean plants at a temperature of 80±5° F. and at a relative humidity of 50±5 percent, were the test organisms. Infested leaves from a stock culture were placed on the primary leaves of two bean plants six to eight inches in height, growing in a two-and-a-half inch clay pot. 150-200 Mites, a sufficient number for testing, transferred from the excised leaves to the fresh plants in a period of twenty-four hours. Following the twenty-four hour transfer period, the excised leaves were removed from the infested plants. […] The potted plants (one pot per compound) were placed on a revolving turntable and sprayed with 100-110 milliliters of test compound formulation by use of a DeVilbiss spray gun at 40 psig. air pressure. This application, which lasted 25 seconds, was sufficient to wet the plants to run-off. As a control, 100-110 milliliters of a water solution containing acetone and emulsifier in the same concentrations as the test compound formulation, but containing no test compound, were also sprayed on infested plants. The sprayed plants were held at a temperature of 80±5° F. and a 50±5 percent relative humidity for six days, after which a mortality count of motile forms was made. Microscopic examination for motile forms was made on the leaves of the test plants. Any individual which was capable of locomotion upon prodding was considered living.
as §2, §3

Data set [6] relates to root-knot nematode, Meloidogyne incognita var. acrita. Briefly: Nematocide Test. Also: key: 1: severe galling, equal to untreated plants; 2: moderate galling; 3: light galling; 4: very light galling; 5: no galling, perfect control. In kind it is in vivo. Particulars: 3.33 m.g. per jar; cucumber, approximately 3 weeks. How it is done: The test organism used was the infective migratory larvae of the root-knot nematode, Meloidogyne incognita var. acrita, reared in the greenhouse on roots of cucumber plants. Infected plants were removed from the culture, and the roots are chopped very finely. A small amount of this inoculum was added to a pint jar containing approximately 180 cc. of soil. The jars were capped and incubated for one week at room temperature. During this period eggs of the nematode were hatched, and the larval forms migrated into the soil.
Ten ml. of the test formulation were added to each of the two jars for each dosage tested. Following the addition of chemical, the jars were capped, and the contents thoroughly mixed on a ball mill for 5 minutes.
The test compounds were formulated by a standard procedure of solution in acetone addition of an emulsifier, and dilution with water. Primary screening tests were conducted at 3.33 m.g. of the test compound per jar.
The jars were left capped at room temperature for a period of 48 hours, and the contents then transferred to 3 inch pots. Subsequently, the pots were seeded to cucumber as an indicator crop and placed in the greenhouse where they were cared for in the normal fashion for approximately 3 weeks.
The cucumber plants were then taken from the pots, the soil removed from the roots; and the amount of galling visually rated.
In the test for activity against nematodes (nem) activity was rated as follows: […]

In the next data set the test system is Bean. Briefly: Phytotoxicity Test, bean. Particulars: 2500 ppm spray, ten days.
The subject of the next data set is Corn. Briefly: Phytotoxicity Test, corn. Particulars: 2500 ppm spray, ten days.
The next data set concerns Soy. Briefly: Phytotoxicity Test, soy. The conditions noted are these: 2500 ppm spray, ten days.
The next data set deals with Cotton. Briefly: Phytotoxicity Test, cotton. The conditions noted are these: 2500 ppm spray, ten days.
Data set [7] in a line: Mammalian Toxicity, peroral toxicity to rat. In kind it is in vivo. The conditions noted are these: in vivo, po, read-out: A.O. Rat LD50. The method, then: (§4) Certain compounds were also evaluated to determine their peroral toxicity to mammals by conventional methods. The representative animal selected for this experiment was the rat.
The subject of another data set is Tom. As to the kind of experiment: Phytotoxicity Test, tomato. Particulars: 2500 ppm spray, ten days.
A further data set deals with rat. As to the kind of experiment: Mammalian Toxicity, peroral toxicity to rat. In kind it is in vivo. The method, then: as §4

Results on twelve compounds are retold here after patent US4551472A, “Unsymmetrical bis-carbamate compounds” (priority 1984, dated 1985).

For orientation: LD50 means the dose expected to kill half of the subjects tested.

Converted amounts (≈) assume the structure as drawn.

Procedure for Corn: (§5) Experiments were also conducted to determine the phytotoxicity of representative compounds with respect to healthy fresh plants. […] The test plants were sprayed in accordance with the procedure described above for the Mite Foliage Spray Test so as to deliver approximately 100 milliliters of test solution to the leaves of each plant tested. The sprayed plants and controls were set aside for approximately one hour to allow the foliage to dry and were then placed in the greenhouse. After ten days the plants were visually inspected to determine the extent of foliage injury. A rating of 1 indicates no perceptible injury; 5 indicates the plant was dead and ratings of 2, 3 and 4 indicate intermediate degrees of injury based upon the number and extent to which leaves were injured.
Procedure for Cotton: as §5
Procedure for Soy: as §5
Procedure for Tom: as §5

As for `CNC(=O)Oc1ccc(C(C)(C)C)cc1`, the LC50 in data set [1], in data set [2], in data set [3], in data set [4] and in data set [5] was above 500 µg/mL throughout.

As for `CN(SN(C)C(=O)Oc1ccc(C(C)(C)C)cc1)C(=O)Oc1ccc(C(C)(C)C)cc1`, the LC50 in data set [1], in data set [2], in data set [3], in data set [4] and in data set [5] was above 500 µg/mL throughout.

Turning to `CC(C)c1cccc(OC(=O)N(C)SN(C)C(=O)Oc2cccc(C(C)C)c2)c1`, the LC50 was 62 µg/mL (≈ 149 µM) in data set [1]; 70 µg/mL (≈ 168 µM) in data set [2]; 150 µg/mL (≈ 360 µM) in data set [3]; 11 µg/mL (≈ 26.4 µM) in data set [4]; above 500 µg/mL in data set [5].

With `CN(SN(C)C(=O)Oc1cccc2ccccc12)C(=O)Oc1cccc2ccccc12`, the LC50 in data set [1] was 80 µg/mL (≈ 185 µM); in [2] it was above 500 µg/mL; in data set [3], above 500 µg/mL; in data set [4], 6 µg/mL (≈ 13.9 µM); in data set [5], above 500 µg/mL.

For the compound `CNC(=O)ON=C1SC(C)(C)C(=O)N1C`, the LC50 was determined as 30 µg/mL (≈ 130 µM) in data set [1]; 160 µg/mL (≈ 692 µM) in data set [2]; 25 µg/mL (≈ 108 µM) in data set [3]; 6 µg/mL (≈ 25.9 µM) in data set [4]; 280 µg/mL (≈ 1210 µM) in data set [5].

`CSC(C)=NOC(=O)N(C)SN(C)C(=O)Oc1ccccc1C1SCCS1` [XXXVI]: in [6], the “Biological Activity: Nem (nematode, galling rating)” value (“Biological Activity: Nem” for short) is reported as 4. For the same compound, the “Phytotoxicity: Bean” value with Bean is 1. Moreover, in the data set on Corn, the “Phytotoxicity: Corn” value is listed as 1. Further, the “Phytotoxicity: Soy” value in the data set on Soy worked out at 1. Moreover, the “Phytotoxicity: Cotton” value in the data set on Cotton was 1. Moreover, the LD50 in data set [7] was determined as 50.4 mg/kg. Besides, the “Phytotoxicity: Tom” value with Tom is reported as 1.

As for `CSC(C)=NOC(=O)N(C)SN(C)C(=O)ON=C(C)SCCC#N` [X], in data set [6], the “Biological Activity: Nem” value is on record as 1. In the data set on Bean, the “Phytotoxicity: Bean” value was 1. In addition, the “Phytotoxicity: Corn” value in the data set with Corn turned out to be 1. Also, the “Phytotoxicity: Soy” value in the data set with Soy is reported as 1. Moreover, the “Phytotoxicity: Cotton” value in the data set with Cotton worked out at 2. Further, the LD50 in [7] stood at 67.3 mg/kg. Further, in the data set with Tom, the “Phytotoxicity: Tom” value turned out to be 1.

For `CSC(C)=NOC(=O)N(C)SN(C)C(=O)Oc1ccc(C(C)(C)C)cc1` [drawing 80], the LC50 in [1] was 7 µg/mL (≈ 17.5 µM); in data set [2], 40 µg/mL (≈ 100 µM); in [3] it was 35 µg/mL (≈ 87.6 µM); in data set [4], 9 µg/mL (≈ 22.5 µM); in [5], above 500 µg/mL.

Regarding `CSC(C)=NOC(=O)N(C)SN(C)C(=O)Oc1cccc(C(C)C)c1` [drawing 83], the LC50 in data set [1] stood at 9 µg/mL (≈ 23.3 µM); in data set [2], 50 µg/mL (≈ 130 µM); in data set [3] it was 15 µg/mL (≈ 38.9 µM); in data set [4], 9 µg/mL (≈ 23.3 µM); in data set [5], 500 µg/mL (≈ 1300 µM).

Take `CSC(C)=NOC(=O)N(C)SN(C)C(=O)Oc1cccc2ccccc12` [drawing 86]: the LC50 stood at 6 µg/mL (≈ 15.2 µM) in data set [1]; 8 µg/mL (≈ 20.3 µM) in data set [2]; 24 µg/mL (≈ 61 µM) in data set [3]; 3 µg/mL (≈ 7.62 µM) in data set [4]; 500 µg/mL (≈ 1270 µM) in [5].

Regarding `CN(SN(C)C(=O)ON=C1SC(C)(C)C(=O)N1C)C(=O)ON=C1CSCCS1` [drawing 88], the LC50 was 29 µg/mL (≈ 62 µM) in [1]; above 500 µg/mL in data set [2]; 2 µg/mL (≈ 4.28 µM) in [3]; 22 µg/mL (≈ 47 µM) in data set [4]; 6 µg/mL (≈ 12.8 µM) in data set [5].

On to “N-[1-Methylthioacetaldehyde O-(N-methylcarbamoyl)oxime]N-[3-(and 4)-isopropylphenyl-(N-methylcarbamoyloxy)]sulfide [XVII]”, for which the “Biological Activity: Nem” value in data set [6] is 4. Further, in the data set with Bean, the “Phytotoxicity: Bean” value was 1. In addition, the “Phytotoxicity: Corn” value with Corn amounted to 1. For the same compound, the “Phytotoxicity: Soy” value in the data set on Soy came to 1. In addition, the “Phytotoxicity: Cotton” value with Cotton worked out at 1. In the data set with rat, the “A.O. Rat LD50” value is reported as 126.0 Mg/Kg. In addition, the “Phytotoxicity: Tom” value with Tom was 1.
